Assay results published in the NIST ThermoML archive (doi:10.1016/j.fluid.2009.02.001).
Several values for one entry are separate records, joined by “and”; a condition that tells them apart may be missing. Equal entries are not always repeated.

Key:
[1] = Molar enthalpy of transition or fusion; conditions: Crystal; DSC
[2] = for vapor or sublimation pressure: Liquid; for Normal melting temperature: Crystal, DTA

CC(=O)Nc1ccc(Br)cc1 [N-(4-bromophenyl)acetamide]
Conditions | Molar enthalpy of transition or fusion [kcal/mol]
[1] | 6.21

vapor or sublimation pressure, [2]
Conditions | Isothermal thermogravimetry | Nonisothermal thermogravimetry
444.2 K | – | 0.304 kPa
446.2 K | 0.384 kPa and 0.382 kPa | –
446.3 K | 0.353 kPa | –
446.4 K | – | 0.366 kPa
447.1 K | 0.381 kPa | –
447.7 K | 0.394 kPa | –
448.2 K | 0.422 kPa | –
448.4 K | – | 0.398 kPa
449.4 K | 0.415 kPa | –
449.9 K | 0.443 kPa | –
450.2 K | 0.453 kPa | 0.443 kPa
451.3 K | 0.447 kPa | –
452.1 K | 0.489 kPa | –
452.2 K | 0.496 kPa | –
452.3 K | – | 0.579 kPa
453.4 K | 0.528 kPa | –
453.6 K | 0.494 kPa | –
454.2 K | 0.539 kPa | –
454.4 K | – | 0.621 kPa
455.3 K | 0.54 kPa | –
455.9 K | 0.584 kPa | –
456.3 K | 0.606 kPa | –
456.4 K | – | 0.611 kPa
457.6 K | 0.605 kPa | –
457.8 K | 0.634 kPa | –
458.2 K | 0.65 kPa | –
458.3 K | – | 0.712 kPa
459.3 K | 0.67 kPa | –
459.5 K | 0.693 kPa | –
460.2 K | 0.732 kPa | –
460.3 K | – | 0.793 kPa
461.5 K | 0.724 kPa | –
462 K | 0.777 kPa | –
462.2 K | 0.793 kPa | 0.882 kPa
463.5 K | 0.793 kPa | –
463.6 K | 0.84 kPa | –
464.2 K | 0.862 kPa | –
464.3 K | – | 0.953 kPa
465.2 K | 0.855 kPa | –
465.9 K | 0.911 kPa | –
466.1 K | 0.943 kPa | –
466.2 K | – | 0.998 kPa
467.1 K | 0.927 kPa | –
468.2 K | 1.011 kPa | –
468.3 K | 1.006 kPa | 1.147 kPa
469.2 K | 1.005 kPa | –
470.2 K | 1.098 kPa and 1.075 kPa | –
470.3 K | – | 1.074 kPa
471.1 K | 1.086 kPa | –
472.1 K | 1.208 kPa | –
472.2 K | – | 1.398 kPa
472.4 K | 1.175 kPa | –
473.2 K | 1.17 kPa | –
474.1 K | 1.285 kPa | –
474.3 K | – | 1.482 kPa
475.3 K | 1.239 kPa | –
476.2 K | 1.381 kPa | 1.497 kPa
478.3 K | – | 1.779 kPa
480.2 K | – | 1.749 kPa
482.3 K | – | 1.937 kPa
484.3 K | – | 2.151 kPa
486.2 K | – | 2.296 kPa
488.3 K | – | 2.466 kPa
490.2 K | – | 2.741 kPa
492.2 K | – | 2.83 kPa
494.3 K | – | 3.134 kPa
496.2 K | – | 3.347 kPa
498.3 K | – | 3.604 kPa
500.3 K | – | 3.812 kPa
502.2 K | – | 4.149 kPa
504.3 K | – | 4.419 kPa
506.2 K | – | 4.593 kPa
508.2 K | – | 4.944 kPa
510.2 K | – | 5.307 kPa
512.2 K | – | 5.584 kPa
514.4 K | – | 5.847 kPa
516.2 K | – | 6.243 kPa

CCOc1ccc(NC(C)=O)cc1 [N-(4-ethoxyphenyl)ethanamide]
Conditions | Molar enthalpy of transition or fusion [kcal/mol] | Normal melting temperature [°C]
[1] | 7.17 | –
[2] | – | 136.5

vapor or sublimation pressure, [2]
Conditions | Isothermal thermogravimetry | Nonisothermal thermogravimetry
418.2 K | – | 0.088 kPa
420.2 K | – | 0.087 kPa
422.2 K | – | 0.102 kPa
424.3 K | – | 0.106 kPa
426.2 K | – | 0.146 kPa
428.2 K | – | 0.146 kPa
430.3 K | – | 0.162 kPa
432.3 K | – | 0.171 kPa
434.3 K | – | 0.199 kPa
438.2 K | – | 0.247 kPa
440.2 K | – | 0.259 kPa
442.2 K | – | 0.309 kPa
444.2 K | – | 0.329 kPa
446.2 K | – | 0.401 kPa
448.2 K | – | 0.396 kPa
450.2 K | – | 0.452 kPa
452.2 K | – | 0.479 kPa
454.2 K | – | 0.538 kPa
456.3 K | – | 0.589 kPa
458.2 K | – | 0.643 kPa
460.2 K | – | 0.707 kPa
460.3 K | 0.821 kPa | –
461.1 K | 0.829 kPa | –
461.9 K | 0.815 kPa | –
462.2 K | 0.899 kPa | 0.785 kPa
463.3 K | 0.958 kPa | –
464.1 K | 0.935 kPa | –
464.3 K | 0.96 kPa | 0.84 kPa
465.5 K | 1.054 kPa | –
466.2 K | 1.028 kPa and 1.087 kPa | –
466.3 K | – | 0.936 kPa
467.4 K | 1.116 kPa | –
468.1 K | 1.149 kPa | –
468.2 K | – | 1.057 kPa
468.3 K | 1.165 kPa | –
469.3 K | 1.242 kPa | –
470 K | 1.259 kPa | –
470.2 K | – | 1.11 kPa
470.3 K | 1.273 kPa | –
471 K | 1.26 kPa | –
471.8 K | 1.327 kPa | –
472.2 K | 1.381 kPa | 1.192 kPa
473.3 K | 1.377 kPa | –
474 K | 1.484 kPa | –
474.2 K | – | 1.324 kPa
474.3 K | 1.551 kPa | –
475.4 K | 1.567 kPa | –
476.1 K | 1.571 kPa | –
476.2 K | 1.666 kPa | 1.4 kPa
477.6 K | 1.691 kPa | –
478.3 K | 1.709 kPa and 1.766 kPa | 1.559 kPa
479.1 K | 1.789 kPa | –
479.8 K | 1.808 kPa | –
480.2 K | 1.915 kPa | 1.679 kPa
481.2 K | 2.014 kPa | –
482 K | 2.037 kPa | –
482.3 K | 2.099 kPa | 1.802 kPa
483.3 K | 2.204 kPa | –
484.1 K | 2.228 kPa | –
484.3 K | 2.276 kPa | 1.945 kPa
485.3 K | 2.4 kPa | –
486 K | 2.495 kPa | –
486.2 K | 2.488 kPa | 2.088 kPa
487.1 K | 2.633 kPa | –
487.8 K | 2.702 kPa | –
488.2 K | – | 2.229 kPa
488.3 K | 2.686 kPa | –
489 K | 2.881 kPa | –
489.8 K | 2.981 kPa | –
490.2 K | 2.941 kPa | –
490.3 K | – | 2.41 kPa
491.1 K | 3.159 kPa | –
492.3 K | – | 2.535 kPa
494.3 K | – | 2.717 kPa
496.2 K | – | 2.889 kPa
498.2 K | – | 3.001 kPa
500.3 K | – | 3.29 kPa
502.3 K | – | 3.213 kPa

CC(=O)Nc1ccc(O)cc1 [N-acetyl-p-aminophenol]
Conditions | Molar enthalpy of transition or fusion [kcal/mol] | Normal melting temperature [°C]
[1] | 6.45 | –
[2] | – | 172.5

vapor or sublimation pressure [kPa], [2]
Conditions | Isothermal thermogravimetry | Nonisothermal thermogravimetry
477.3 K | 0.194 | 0.197
478.8 K | 0.1996 | –
479.3 K | 0.206 | 0.204
480 K | 0.225 | –
480.8 K | 0.2307 | –
481.4 K | 0.249 | 0.25
482 K | 0.2601 | –
482.9 K | 0.2539 | –
483.2 K | 0.276 | 0.259
483.8 K | 0.2861 | –
484.7 K | 0.2838 | –
485.2 K | 0.303 | –
485.9 K | 0.3199 | –
486.7 K | 0.3264 | –
487.3 K | 0.336 | 0.341
487.9 K | 0.3679 | –
488.8 K | 0.3624 | –
489.3 K | 0.365 | 0.315
490 K | 0.3891 | –
490.8 K | 0.3978 | –
491.2 K | 0.409 | 0.468
491.8 K | 0.437 | –
492.7 K | 0.449 | –
493.3 K | 0.44 | 0.447
493.9 K | 0.482 | –
494.8 K | 0.4882 | –
495.4 K | 0.492 | 0.504
496 K | 0.524 | –
496.9 K | 0.5169 | –
497.2 K | 0.554 | –
497.9 K | 0.5547 | –
498.7 K | 0.5818 | –
499.3 K | 0.61 | 0.669
499.9 K | 0.6246 | –
500.8 K | 0.6364 | –
501.4 K | 0.677 | –
502 K | 0.6832 | –
502.9 K | 0.7129 | –
503.2 K | 0.733 | 0.729
503.4 K | – | 0.838
503.8 K | 0.765 | –
504.7 K | 0.7889 | –
505.2 K | 0.815 | 0.861
505.8 K | 0.8468 | –
506.7 K | 0.8517 | –
507.2 K | 0.888 | 0.945
507.9 K | 0.9142 | –
508.7 K | 0.933 | –
509.3 K | – | 1.037
511.3 K | – | 1.207
513.4 K | – | 1.178
515.4 K | – | 1.41
517.2 K | – | 1.544
519.2 K | – | 1.696
521.3 K | – | 1.757
523.2 K | – | 2.012
525.3 K | – | 2.197
527.3 K | – | 2.32
529.2 K | – | 2.607
531.2 K | – | 2.823
533.3 K | – | 3.064
535.4 K | – | 3.295
537.2 K | – | 3.552
539.3 K | – | 4.01
541.3 K | – | 4.144
543.3 K | – | 4.653
545.4 K | – | 5.059
547.4 K | – | 5.373
549.2 K | – | 5.759
551.2 K | – | 6.208
553.2 K | – | 6.719
557.3 K | – | 7.824
559.4 K | – | 8.304
561.2 K | – | 8.944
